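In this assay, cells in 96-well plates receive the compound at five concentrations for 48 hours. Endpoints are linearly interpolated between the surrounding concentrations. GI50: concentration for 50% inhibition of growth. TGI marks complete inhibition of growth.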

This is an account of results in PubChem BioAssay (NCI).

Test systems include DLD-1 colon; DMS 114 small cell lung; DMS 273 small cell lung; LXFL 529 NSCLC; M19-MEL melanoma; SNB-78 CNS; XF 498 CNS; HOP-18 NSCLC; BT-549 breast; MCF7 breast; MDA-MB-435; NCI/ADR-RES ovarian; PC-3 prostate; HS 578T breast.
Experiment in all cases: NCI-60 cell line screen, 48 h

Consider `COc1ccc(C2=NN(c3ccccc3)C[N+](c3ccc(OC)cc3)=N2)cc1`, for which the TGI with DLD-1 colon is over 100 µM; in the test on DMS 114 small cell lung, 64 µM; with DMS 273 small cell lung, 66.1 µM; in the test on LXFL 529 NSCLC, 45.4 µM; in the test with M19-MEL melanoma it was over 100 µM; with SNB-78 CNS, 80.5 µM. In the test with XF 498 CNS, this compound showed a TGI of 39.1 µM.

Regarding `Cc1ccccc1NC(=O)C(=O)CC(=O)c1c(C)n([O-])c2ccccc2[n+]1=O`, the TGI with DLD-1 colon, with DMS 114 small cell lung, with DMS 273 small cell lung, in the test on HOP-18 NSCLC, in the test with LXFL 529 NSCLC and with M19-MEL melanoma was over 100 µM throughout. Also, the TGI in the test on SNB-78 CNS is over 100 µM.

`C1=C2/CC[C@H](Sc3ccccc3)[C@H]2C2(CCCCC/1)OCCO2`: the TGI with DLD-1 colon was over 100 µM; with DMS 273 small cell lung, over 100 µM; in the test on HOP-18 NSCLC it was over 100 µM; in the test with LXFL 529 NSCLC, over 100 µM; in the test with M19-MEL melanoma it was 67 µM; with SNB-78 CNS, over 100 µM.

For the compound `COc1c(Cl)cc(NC(=S)C#N)cc1Cl`, the TGI is 39.5 µM with BT-549 breast; over 100 µM with DLD-1 colon; 36.3 µM in the test on DMS 114 small cell lung; 83.2 µM with DMS 273 small cell lung; 60.1 µM in the test with HOP-18 NSCLC; 85.8 µM with LXFL 529 NSCLC. Also, the TGI in the test with M19-MEL melanoma is 50.2 µM; with MCF7 breast it was 92.9 µM; in the test with MDA-MB-435, 92.8 µM; in the test with NCI/ADR-RES ovarian, 54.4 µM; with PC-3 prostate, over 100 µM; with SNB-78 CNS, 85.9 µM.

For `COc1ccc(C(C#N)Cc2cc(OC)c(OC)c(OC)c2)cc1` (centres undefined), the TGI is over 100 µM in the test with DLD-1 colon; 63.4 µM with DMS 114 small cell lung; over 100 µM in the test on DMS 273 small cell lung; over 100 µM in the test on HOP-18 NSCLC; over 100 µM in the test with LXFL 529 NSCLC; over 100 µM in the test on M19-MEL melanoma. The same compound showed a TGI in the test on SNB-78 CNS of over 100 µM.

On to `COc1ccc(C(=O)C(c2ccc(OC)cc2)C2(O)C(=O)Nc3c2ccc(Cl)c3C)cc1` (centres undefined), for which the TGI in the test with DMS 114 small cell lung, with HOP-18 NSCLC, with LXFL 529 NSCLC, with M19-MEL melanoma and in the test on SNB-78 CNS was over 100 µM each time.

In the case of `C=C1c2[nH]c3c([N+](=O)[O-])c(OC)ccc3c2CCN1C(C)=O`, the TGI was 38.4 µM with DLD-1 colon; over 100 µM with DMS 114 small cell lung; over 100 µM in the test on DMS 273 small cell lung; over 100 µM with LXFL 529 NSCLC; over 100 µM in the test with SNB-78 CNS.

Regarding `Cc1ccc(Nc2nc(C)c(C(/C=C/c3ccc(/C=C/C(=N/NC(=O)C[n+]4ccccc4)c4sc(Nc5ccc(C)cc5[N+](=O)[O-])nc4C)cc3)=N\NC(=O)C[n+]3ccccc3)s2)c([N+](=O)[O-])c1`, the TGI was over 100 µM in the test with DLD-1 colon; over 100 µM with DMS 114 small cell lung; over 100 µM in the test with DMS 273 small cell lung; 68 µM in the test on HOP-18 NSCLC; over 100 µM in the test with LXFL 529 NSCLC; over 100 µM with M19-MEL melanoma. The same compound had a TGI with SNB-78 CNS of over 100 µM.

As to `COc1ccc2ccccc2c1C1OC(=O)c2ccccc21` (centres undefined), the TGI with DLD-1 colon, in the test on DMS 114 small cell lung, with DMS 273 small cell lung, in the test with HOP-18 NSCLC, in the test with M19-MEL melanoma and in the test on SNB-78 CNS was over 100 µM in each case.

Regarding `CCc1cccc(C)c1NC(=O)C(=O)Cc1nc2ccccc2s1`, the TGI with DLD-1 colon, in the test with DMS 114 small cell lung, with DMS 273 small cell lung, in the test with HOP-18 NSCLC, in the test on LXFL 529 NSCLC and in the test on M19-MEL melanoma was over 100 µM in each case. The same compound returned a TGI in the test on SNB-78 CNS of over 100 µM.

For `CC(C)c1cccc2sc(NC(=O)C(=O)C(C#N)c3cccc4ccccc34)nc12` (centres undefined), the TGI in the test on DLD-1 colon, in the test on DMS 114 small cell lung, in the test with DMS 273 small cell lung, in the test with HOP-18 NSCLC, in the test on LXFL 529 NSCLC and in the test with M19-MEL melanoma was over 100 µM each time. Further, in the test with SNB-78 CNS, the TGI was over 100 µM.

Turning to `COc1ccc(C2SC(C)C(=O)N2NC(=O)C(O)c2ccccc2)cc1OC` (centres undefined), the GI50 in the test with BT-549 breast, in the test with HS 578T breast, with MCF7 breast, in the test on MDA-MB-435, in the test with NCI/ADR-RES ovarian and with PC-3 prostate was over 100 µM throughout. Also, the TGI with BT-549 breast, in the test on HS 578T breast, in the test on MCF7 breast, in the test on MDA-MB-435, in the test with NCI/ADR-RES ovarian and with PC-3 prostate was over 100 µM throughout.

Consider `C[Si](C)(C)c1ccc(-c2sc(-c3ccc([Si](C)(C)C)s3)c3c2C[Si]2(C3)Cc3c(-c4ccc([Si](C)(C)C)s4)sc(-c4ccc([Si](C)(C)C)s4)c3C2)s1`, for which the TGI in the test with DLD-1 colon, in the test on DMS 273 small cell lung, with LXFL 529 NSCLC, in the test on M19-MEL melanoma, with SNB-78 CNS and in the test with XF 498 CNS was over 100 µM in each case.

As to `C/C=C(\C)C(=O)O[C@H]1C=CC(=O)O[C@@H]1CC[C@H](O)[C@H](C)O`, the GI50 in the test with BT-549 breast is 27.3 µM; in the test on HS 578T breast, 34.8 µM; with MCF7 breast it was 32.6 µM; with MDA-MB-435, 34.6 µM; with NCI/ADR-RES ovarian, over 100 µM; in the test on PC-3 prostate, over 86.2 µM. Moreover, the TGI in the test on BT-549 breast was 71.2 µM; in the test with HS 578T breast, 94.2 µM; in the test on MCF7 breast it was over 100 µM; in the test on MDA-MB-435 it was over 100 µM; in the test on NCI/ADR-RES ovarian, over 100 µM; with PC-3 prostate, over 100 µM.

Consider `CCOC(=O)NC(=O)c1cn(CCCCCCOC(=O)NCCCCCCNC(=O)OCCCCCCn2cc(C(=O)NC(=O)OCC)c(=O)[nH]c2=O)c(=O)[nH]c1=O`, for which the TGI in the test with DLD-1 colon, in the test with DMS 114 small cell lung, with DMS 273 small cell lung, in the test with HOP-18 NSCLC, in the test on LXFL 529 NSCLC and in the test with M19-MEL melanoma was over 100 µM each time.

Turning to `O=C(Nc1cccc(NC(=O)Nc2cc(C(F)(F)F)ccc2Cl)c1)Nc1cc(C(F)(F)F)ccc1Cl`, the GI50 was 5.55 µM in the test with BT-549 breast; 2.64 µM with HS 578T breast; 0.516 µM in the test on MCF7 breast; 5.56 µM with MDA-MB-435; 3.01 µM in the test on NCI/ADR-RES ovarian; 1.4 µM with PC-3 prostate. Further, the TGI was 38.4 µM in the test on BT-549 breast; 8.81 µM in the test on HS 578T breast; 32.9 µM with MCF7 breast; over 100 µM in the test with MDA-MB-435; 17.7 µM in the test with NCI/ADR-RES ovarian; 8.23 µM in the test with PC-3 prostate.
